Assays:
A172 glioblastoma cells = experiment: A172 cell viability / proliferation (CellTiter-Glo); format: cell-based; details: Homo sapiens, A 172, 48-72 hours treatment, read-out: IC50 for A172 cell growth
Method: (§1) A172 glioblastoma cells were cultured in Dulbecco's modified Eagle's medium (DMEM) supplemented with 10% fetal bovine serum and 1% Penicillin-streptomycin. Incubation was performed at 37° C. and 5% CO2.
A172 cells were seeded at 3000-3500 cells/90 μL growth medium per well on 96-well tissue culture plates. Cells were incubated overnight to allow them to recover and reattach. Next day cells were treated with tested compounds and incubated for 48-72 hours.
Cell Proliferation assays in triplicate were performed at each concentration. Compounds test range was 1-30 µM (0, 5, 10, 15, 20, 25, and 30). The compounds were dissolved in DMSO. […]
After treatment, cells were allowed to equilibrate at room temperature for 1/2 to one hour. Cell proliferation was measured by Luminescence quantification using Promega CellTiter-Glo Luminescent Cell Viability Assay. […] Luminescence intensity was measured using the Spectramax i3× plate reader.
The Luminescence intensity data were analyzed using the computer software Graphpad Prism. In the absence of the compound, the luminescence intensity (Lt) in each data set was defined as 100% cell viability. The percent cell in the presence of each compound was calculated according to the following equation: % Cell=L/Lt, were L=the luminescence intensity in the presence of the compound. […]

[1] = test system: bleomycin-induced pulmonary fibrosis; experiment: Bleomycin induced lung fibrosis model in mice; format: in vivo
From the text: Bleomycin exposure reproducibly induces lung fibrosis in mice and bleomycin induced lung fibrosis is commonly used as an animal model to assess the efficacy of experimental therapeutics for idiopathic pulmonary fibrosis, see for example Tashiro et al, “Exploring Animal Models that Resemble Idiopathic Pulmonary Fibrosis”, Front. Med. 4:118 (2017). doi: 10.3389/fmed.2017.0018. Herein presented are data on the efficacy of Example 6 (Ex-6) in cellular models of lung fibrosis and in a mouse bleoycin induced lung fibrosis model, see FIGS. 1 through 8.
In brief, the animal model consisted of bleomycin administration using a combined protocol previously described by Wyman et al (Wyman, A. E., et al., “Sirtuin 7 is decreased in pulmonary fibrosis and regulates the fibrotic phenotype of lung fibroblasts”. Am J Physiol Lung Cell Mol Physiol, 2017. 312 (6): p. L945-L958.) and Geraghty et al (Geraghty, P. and Foronjy, R. ‘Protein Transfection of Mouse Lung’. J Vis Exp, (75), e50080 2013 May 15). After sedation was achieved (87.5 mg/kg Ketamine/12.5 mg/kg xylazine), mice were suspended from their upper incisors (see Geraghty et al. for visual publication of intratracheal delivery). The oropharynx was opened so that a catheter/Penn Century MicroSprayer (Penn-Century, Wyndmoor, Philadelphia, PA) can be introduced into the trachea. The vocal cords and trachea were visualized by placing a light source against the trachea of the mouse. The MicroSprayer was inserted intratracheally, and the bleomycin solution (0.075 U/mouse) was instilled in 50 μL of sterile PBS. The MicroSprayer creates a mist rather than droplets, for better tissue distribution and reduces the risk of animal suffocation. Control mice were instilled with 50 μl of sterile PBS with no additives. This intratracheal maneuvering and delivery took about 30 seconds to complete. Animals were allowed to recover from sedation. Water was supplemented with the compound/drug beginning either before, 7 or 20 days after bleomycin treatment.
Ex-6 was dosed at 5 mg/kg in the bleomycin induced fibrosis. In vivo data is shown in FIG. 3: C57BL/6J mice were orally administered 5 mg/kg Ex-6 once daily, beginning on the same day as bleomycin (BLM) treatment to test if activation of PP2A could prevent establishment of idiopathic pulmonary fibrosis (IPF). […] Differences were shown in compliance, tissue elastance, and forced vital capacity of 3-month-old C57BL/6J mice following administration of vehicle or Example 6 after tracheal instillation of saline or bleomycin, indicating prevention of bleomycin-induced pulmonary fibrosis in mice by administration of Example 6. Graphs were represented as mean±S.E.M, where n=7 animals per group. P values, shown when comparing both treatments connected by a line, were determined by Student t-tests. […]

[2] = test system: phosphatase activity in ApoE transfected A172 glioblastoma cells; experiment: Cellular in vitro phosphatase activation assay (Malachite Green) in ApoE transfected A172 cells; format: cell-based; details: 24 hours
Method: Cellular in vitro phosphatase activation assay was performed using the method of Theendakara et al, Molecular and Cellular Neuroscience, 83 (2017), pages 83-91 which is described below:
as §1
A172 cells were seeded at 5×10^5 cells/2.5 ml growth medium (without antibiotics) per well on 6-well tissue culture plates. Cells were incubated overnight to allow them to recover and reattach. […]
After 24 hrs, cells were washed twice with imidazole buffer and lysed using NP-40 Lysis buffer. […] The amount of phosphate release in the assay was determined by measuring absorbance at 620 nm using the Spectramax i3x plate reader.
The absorbance intensity data were analyzed using the computer software Graphpad Prism. The phosphate concentration for each sample was determined from the standard curve using phosphate standard concentrations. In order to compare samples, the first set (column A) were there was no transfection performed and no compound added, was designated a baseline; the absorbance measurement in this column was set as 100% phosphatase activity.

With `O=S(=O)(NC1CCOC(C2c3ccc(F)cc3CCc3cc(F)ccc32)C1)c1ccc(OC(F)(F)F)cc1` (stereo not drawn) [Example 6, N-(2-(2,8-difluoro-10,11-dihydro-5H-dibenzo[a,d][7]annulen-5-yl)tetrahydro-2H-pyran-4-yl)-4-(trifluoromethoxy)benzenesulfonamide] the IC50 (A172 glioblastoma cells) was 9.9 µM, the “bleomycin-induced PV loop changes, compliance, tissue elastance and forced vital capacity (FVC)” value ([1]; 5 mg/kg orally once daily from the day of bleomycin, C57BL/6J mice (FIG. 6)) was “prevented” and the “collagen deposition in lung (trichrome staining)” value ([1]; bleomycin mice, vs vehicle control (FIG. 7)) was “attenuates collagen deposition”. The “bleomycin-induction of fibrosis related genes Acta2, Ccn2, Col1a1, FN1 in lung tissue” value ([1]; bleomycin mice, vs vehicle control (FIG. 8)) was “suppressed”, the “toxicity in mice (external appearance, behavior, body weight)” value ([1]; three-week administration, vs vehicle groups) was “no obvious toxicity” and the “% increase from ApoE transfected cell at 5 μM test compound concentration” value [2] was 6.8%.

Reference: patent US12522575B2, “2-diarylmethyl-4-aminotetrahydropyran derivatives and related compounds as anticancer, antiinflammatory, antifibrotic and neuroprotective agents” (Atux Iskay LLC, priority 2021, dated 2026)
